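Five concentrations, 48 hours, 96-well plates. At the GI50, growth is halved. Definition used: TGI = concentration required for complete inhibition of growth.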
Key:
Assay in all cases: growth of human tumour cells (NCI), 48 h
K-562 leukemia = tested on: K-562 leukemia
TK-10 renal = tested on: TK-10 renal
SK-OV-3 ovarian = tested on: SK-OV-3 ovarian
HOP-62 NSCLC = tested on: HOP-62 NSCLC
CCRF-CEM leukemia = tested on: CCRF-CEM leukemia
SK-MEL-2 melanoma = tested on: SK-MEL-2 melanoma
A498 renal = tested on: A498 renal
SF-539 CNS = tested on: SF-539 CNS
SNB-75 CNS = tested on: SNB-75 CNS
NCI-H226 lung = tested on: NCI-H226 lung

SMILES	TGI (K-562 leukemia) [µM]	TGI (TK-10 renal) [µM]	TGI (SK-OV-3 ovarian) [µM]	TGI (HOP-62 NSCLC) [µM]	TGI (CCRF-CEM leukemia) [µM]	TGI (SK-MEL-2 melanoma) [µM]	TGI (A498 renal) [µM]	TGI (SF-539 CNS) [µM]	TGI (SNB-75 CNS) [µM]	TGI (NCI-H226 lung) [µM]	GI50 (K-562 leukemia) [µM]	GI50 (TK-10 renal) [µM]	GI50 (SK-OV-3 ovarian) [µM]	GI50 (HOP-62 NSCLC) [µM]	GI50 (SK-MEL-2 melanoma) [µM]	GI50 (A498 renal) [µM]	GI50 (SF-539 CNS) [µM]	GI50 (SNB-75 CNS) [µM]	GI50 (NCI-H226 lung) [µM]	GI50 (CCRF-CEM leukemia) [µM]
CC1S(=O)(=O)OCCOS1(=O)=O	> 100	> 100	> 100	> 100	> 100	> 100	> 100	> 100	> 100	> 100										
Cc1cc2c3ccccc3n(C)c2c2c1C(=O)C=CC2=O	> 74	31.2	53.4	49.9	> 36	37.7	35.5	41.9	60	42.5										
Fc1ccc2[nH]c3c(NCCCN4CCOCC4)ncnc3c2c1	> 100	> 100	> 100	> 100		> 100	> 100	62.7	> 100	> 100	26.2	66.4	> 100	42.8	52	28.1	21.3	37.5	63.3	
NNC(=O)CCC(=O)NC1C2CC3CC(C2)CC1C3 (configuration not stated)	> 100	> 100	> 100	> 100	> 100	> 100	> 100	> 100	> 100	> 100										
CC(=O)OCC1OC(n2ccc(=O)[nH]c2=O)C(OC(C)=O)C1OC(C)=O (configuration not stated)		> 100	> 100	> 100		> 100	> 100	> 100	> 100	> 100		> 100	> 100	> 100	> 100	> 100	> 100	> 100	> 100	
CO/N=C(\C)c1ccc(Nc2cc(-c3ccccc3)nc3c(O)cccc23)cc1	60.4		35.5	34.8	22.6	> 100	41.6	32.1	46.1	78.4	11.6		18.8	17.6	28	21.4	17.6	22.1	22.4	6.64
CCCCCCCCCCCC[n+]1ccc(CCCCCCCCC)cc1		2.76	2.89	2.9			2.37		2.57			1.35	1.51	1.41		1.02		1.26		
Nc1cc(N)c(N)cc1N	> 100	14.5	42.2	3.35	27.5		4.67	5.88	2.87	3.96	2.92	3.68	7.12	1.76		1.6	2.17	1.47	1.93	3.43
CCC12CCCC(=O)N1C(CO)C(c1ccccc1)O2 (configuration not stated)	> 100	> 100		> 100	> 100	> 100	> 100	> 100	> 100											
C=C(C)C(=O)O[C@H]1[C@H]2[C@H](OC(=O)[C@H]2C)[C@H](O)[C@@H](C)[C@@H]2C=CC(=O)[C@]21C		8.09	18.3	34.1	7.53	18.4	6.56	16.5		39										
Cn1nc(-c2ccccc2)c(C(=O)/C=C/c2ccccc2)c(N2CCOCC2)c1=O	56	89.4	81	> 100	57.2		35	39.5												
CC12CCC(=O)C=C1CCC1C2C(O)CC2(C)C(c3csc(N)n3)CCC12 (configuration not stated)	> 100	> 100	> 100	> 100		> 100	> 100	> 100	> 100	> 100										
CCCCn1cnc2c(SC)ncnc21	> 100	> 100	> 100	> 100		> 100	> 100	> 100	> 100											
COc1ccc2c(c1)OC(N(C(C)=O)C(C)=O)=C(C#N)C2c1ccc(F)cc1 (configuration not stated)		> 100	> 100	> 100	> 100	> 100	> 100	6.93	> 100	> 100		17.5	2.47	1.7	1.08	2.43	1.55	1.28	25.5	2.13
CC(=O)O[C@@H]1CC2C(C)(C)CCCC2(C)C2=C1C(=O)C(C(C)C)=CC2=O (some centres not stated)	> 100	> 100	8.5	4.13	> 100	3.53	2.35	4.05		2.09	1.69	2.51	3.26	1.77	0.95	1.06	1.17		0.518	2.79
CCCCCCCCCCCCCCCC(=O)OCC1OC(n2c(O)c(N=NC(N)=S)c3ccc([N+](=O)[O-])cc32)C(OC(C)=O)C1OC(C)=O (configuration not stated)	> 100	> 100	> 100	> 100	> 100	> 100		> 100	> 100	> 100										
COc1cc(/C=C/C(=O)c2sc(Nc3ccccc3)nc2C)ccc1O	> 100	> 100	> 100	> 100	> 100	> 100	> 100	> 100	84.8											
COc1nc2nccc-2c2occn12	> 100	> 100	> 100	> 100		> 100	> 100	> 100	> 100											
